Test results as given in publication PMC4162403 (Angewandte Chemie (International ed. in English), 2010).

Molecular target: TNF-α (Homo sapiens, UniProt P01375)
Test: inhibition of TNFR-1 binding to TNF-α, side-by-side experiment
Settings: read-out: % inhibition at 10 μM

TNF-α, sequence (P01375 77-233): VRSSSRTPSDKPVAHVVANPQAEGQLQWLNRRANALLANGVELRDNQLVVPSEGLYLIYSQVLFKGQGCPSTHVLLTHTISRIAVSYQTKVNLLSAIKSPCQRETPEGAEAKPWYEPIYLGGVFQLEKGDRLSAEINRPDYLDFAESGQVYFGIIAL

inhibition at 10 µM: 34%
SMILES: Cc1cc2occ(CN(C)CCN(C)Cc3cn(-c4cccc(C(F)(F)F)c4)c4ccccc34)c(=O)c2cc1C [SPD304]
